Test results: patent US20140037715A1, “DISULFIRAM FORMULATION AND USES THEREOF” (UNIVERSITY OF WOLVERHAMPTON, priority 2010, published 2014)
Blank lines part the entries; values can stand above or below the compound they belong to.

What was measured:
Stability in whole blood = type: in vitro ADME; conditions: after 5 hours
S180 sarcoma = S180 sarcoma growth in mice; type: in vivo; conditions: S180 sarcoma bearing mice; DS 30 mg/kg oral, CuCl2 3 mg/kg oral
Procedure: An S180 mouse sarcoma (FIGS. 6A-6C) and MDA-MB-231 breast cancer cells (1×10^6) (FIG. 6D-6F) were subcutaneously injected into the rare frank of BALB/c and CD1 Nu/Nu mice respectively (S180: n=5; MDA-MB-231: n=6).
Five-week-old female athymic CD1 nude mice used in this study were housed under pathogen-free conditions. Human MDA-MB-231 breast cancer or mouse S180 sarcoma cells (1×10^6) were injected s.c. at one flank of the mice. Tumour volume (V) was determined by the equation: V=(L×W^2)×0.5, where L is the length and W is the width of the tumour. When xenografts reached volumes of ˜200 mm^3, the mice showing tumours were randomly grouped for the following treatments. The first day of drug treatment was designated as day 1.
Five groups (5 mice/group) were set up for mice with S180 sarcoma: 1. control, No treatment; 2. […] DS, non-encapsulated DS 30 mg/kg dissolved in vegetable oil, oral administration; 5. DS/Cu: DS 30 mg/kg oral and CuCl2 3 mg/kg oral.
The animals were subjected to different treatments when their tumours reached 2 mm in diameter. The drugs were administrated on Monday, Wednesday and Friday for two successive weeks. […] For the combination treatment groups, CuCl2 were administered in the morning.

breast cancer cell lines = assay: MTT cytotoxicity assay in breast cancer cell lines; conditions: CuCl2 (10 μM) containing medium, 72 hours
Procedure: After 72 hours, the viability of the treated cells was determined by MTT assay.
The viability was determined by MTT assay.
(§1) All cell lines were cultured in DMEM (Lonza, Wokingham, UK) supplemented with 10% FCS, 50 units/ml penicillin, 50 μg/ml streptomycin. For in vitro cytotoxicity assay, cells [5,000/well (10,000/well for MDA-MB-231PAC10)] were cultured overnight in 96-well flat-bottomed microtiter plates then exposed to drugs for 72 h and subjected to a standard MTT assay (Plumb J A, et al Cancer Res 1989; 49(16):4435-40).
The cells were then subjected to MTT analysis as described above.

[1] = cited from earlier work
Stability in plasma = type: in vitro ADME; conditions: after 25 hours
T47D = assay: MTT cytotoxicity assay, single drugs and combinations with Lipo-DS/Cu; type: cell-based; conditions: Homo sapiens, 72 h
Procedure: as §1
(§2) The cells were then subjected to MTT analysis as described above. […] The combination index (CI) was determined by mutually exclusive equations.

MDA-MB-231 = assay: as above; type: cell-based; conditions: Homo sapiens, MDA-MB-231, 72 h
Procedure: as §1, §2

MCF7 = assay: as above; type: cell-based; conditions: Homo sapiens, MCF7, 72 h
Procedure: as §1, §2

remaining in whole blood (Stability in whole blood): about 10% | remaining in plasma (Stability in plasma): about 15%
Compound: CCN(CC)C(=S)SSC(=S)N(CC)CC [DS, disulfiram]
in vivo anticancer effect (S180 sarcoma): not detected | cytotoxicity to BC cell lines (breast cancer cell lines): comparable cytotoxicity | blood concentration ([1]; after oral administration of a 500 mg dose): below the limit of detection | half-life in the blood stream ([1]; degraded by glutathione reductase system in erythrocytes): 4 min

Compound: COc1cccc2c1C(=O)c1c(O)c3c(c(O)c1C2=O)C[C@@](O)(C(=O)CO)C[C@@H]3O[C@H]1C[C@H](N)[C@H](O)[C@H](C)O1 [Dox alone, doxorubicin]
IC50 (T47D): 0.16 µM | IC50 (MDA-MB-231): 0.178 µM | IC50 (MCF7): 0.441 µM

Compound: Nc1ccn([C@@H]2O[C@H](CO)[C@@H](O)C2(F)F)c(=O)n1 [GEM alone, gemcitabine]
IC50 (T47D): 0.035 µM | IC50 (MDA-MB-231): 0.0123 µM | IC50 (MCF7): 0.0221 µM

Compound: CC(=O)O[C@H]1C(=O)[C@@]2(C)[C@H]([C@H](OC(=O)c3ccccc3)[C@]3(O)C[C@H](OC(=O)[C@H](O)[C@@H](NC(=O)c4ccccc4)c4ccccc4)C(C)=C1C3(C)C)[C@]1(OC(C)=O)CO[C@@H]1C[C@@H]2O [Pac alone, paclitaxel]
IC50 (T47D): 0.0026 µM | IC50 (MDA-MB-231): 0.0093 µM | IC50 (MCF7): 0.0043 µM
